Measurements from ChEMBL document CHEMBL1201861, “Genomics of Drug Sensitity in Cancer screening data, Wellcome Trust Sanger Institute”.

Tests used:
Assay in all cases: cells
Conditions in all cases: Homo sapiens
KE-37 = format: functional, cell-based;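 also: growth inhibition of KE-37 cells, read out with a cell viability assay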
Description: SANGER: Inhibition of human KE-37 cell growth in a cell viability assay.

KARPAS-299 = format: functional, cell-based
Description: SANGER: Inhibition of human KARPAS-299 cell growth in a cell viability assay.

GI-ME-N = format: functional, cell-based;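 also: growth inhibition of human GI-ME-N cells, read out with a cell viability assay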
Description: SANGER: Inhibition of human GI-ME-N cell growth in a cell viability assay.

L-428 = format: functional, cell-based
Description: SANGER: Inhibition of human L-428 cell growth in a cell viability assay.

C2BBe1 = format: functional, cell-based;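 also: growth inhibition of C2BBe1 cells, read out through a viability assay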
Description: SANGER: Inhibition of human C2BBe1 cell growth in a cell viability assay.

NH-12 = format: functional, cell-based;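 also: growth inhibition of NH-12 cells, read out with a cell viability assay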
Description: SANGER: Inhibition of human NH-12 cell growth in a cell viability assay.

MPP-89 = format: functional, cell-based;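 also: growth inhibition of human MPP-89 cells, read out with a cell viability assay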
Description: SANGER: Inhibition of human MPP-89 cell growth in a cell viability assay.

DSH1 = format: functional, cell-based;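 also: growth inhibition of human DSH1 cells, measured with a cell viability readout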
Description: SANGER: Inhibition of human DSH1 cell growth in a cell viability assay.

A498 = format: functional, cell-based;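 also: growth inhibition of human A498 cells, read out with a cell viability assay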
Description: SANGER: Inhibition of human A498 cell growth in a cell viability assay.

EKVX = format: functional, cell-based;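 also: growth inhibition of human EKVX cells, read out with a cell viability assay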
Description: SANGER: Inhibition of human EKVX cell growth in a cell viability assay.

LB1047-RCC = format: functional, cell-based;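 also: inhibition of cell growth, determined with a cell viability assay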
Description: SANGER: Inhibition of human LB1047-RCC cell growth in a cell viability assay.

NCI-H1355 = format: functional, cell-based;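 also: growth inhibition of human NCI-H1355 cells, read out by a cell viability assay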
Description: SANGER: Inhibition of human NCI-H1355 cell growth in a cell viability assay.

NCI-H510A = format: functional, cell-based;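 also: growth inhibition of NCI-H510A cells, read out with a cell viability assay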
Description: SANGER: Inhibition of human NCI-H510A cell growth in a cell viability assay.

EW-3 = format: functional, cell-based;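 also: cell viability assay read-out, IC50 reflects inhibition of growth of the EW-3 cells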
Description: SANGER: Inhibition of human EW-3 cell growth in a cell viability assay.

BB30-HNC = format: functional, cell-based;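 also: growth inhibition of the cultured cell line, read out by a cell viability assay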
Description: SANGER: Inhibition of human BB30-HNC cell growth in a cell viability assay.

RH-1 = format: functional, cell-based;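 also: growth inhibition of human RH-1 cells, read out with a cell viability assay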
Description: SANGER: Inhibition of human RH-1 cell growth in a cell viability assay.

SK-UT-1 = format: functional, cell-based;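 also: growth inhibition of SK-UT-1 cells, measured by a cell viability assay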
Description: SANGER: Inhibition of human SK-UT-1 cell growth in a cell viability assay.

D-263MG = format: functional, cell-based
Description: SANGER: Inhibition of human D-263MG cell growth in a cell viability assay.

NKM-1 = format: functional, cell-based;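 also: growth inhibition of NKM-1 cells, read out with a cell viability assay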
Description: SANGER: Inhibition of human NKM-1 cell growth in a cell viability assay.

EW-18 = format: functional, cell-based;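 also: growth inhibition of EW-18 cells, read out by a cell viability assay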
Description: SANGER: Inhibition of human EW-18 cell growth in a cell viability assay.

D283 Med = format: functional, cell-based
Description: SANGER: Inhibition of human D-283MED cell growth in a cell viability assay.

COLO-320-HSR = format: functional, cell-based;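 also: growth inhibition of COLO-320-HSR cells, determined with a cell viability assay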
Description: SANGER: Inhibition of human COLO-320-HSR cell growth in a cell viability assay.

NCI-H1650 = format: functional, cell-based;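 also: growth inhibition of human NCI-H1650 cells measured by a cell viability assay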
Description: SANGER: Inhibition of human NCI-H1650 cell growth in a cell viability assay.

Lu-65 = format: functional, cell-based;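 also: growth inhibition of Lu-65 cancer cells, read out by a cell viability assay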
Description: SANGER: Inhibition of human LU-65 cell growth in a cell viability assay.

TE-8 = format: functional, cell-based;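 also: growth inhibition of TE-8 cells, measured with a cell viability readout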
Description: SANGER: Inhibition of human TE-8 cell growth in a cell viability assay.

NB10 = format: functional, cell-based;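 also: growth inhibition of NB10 cells, read out by a cell viability assay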
Description: SANGER: Inhibition of human NB10 cell growth in a cell viability assay.

LB771-HNC = format: functional, cell-based;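 also: growth inhibition of LB771-HNC human cells, read out with a cell viability assay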
Description: SANGER: Inhibition of human LB771-HNC cell growth in a cell viability assay.

IST-MES1 = format: functional, cell-based;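 also: growth inhibition of IST-MES1 cells, measured with a cell viability assay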
Description: SANGER: Inhibition of human IST-MES1 cell growth in a cell viability assay.

LU-134-A = format: functional, cell-based
Description: SANGER: Inhibition of human LU-134-A cell growth in a cell viability assay.

COLO-829 = format: functional, cell-based
Description: SANGER: Inhibition of human COLO-829 cell growth in a cell viability assay.

NCI-H1092 = format: functional, cell-based;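 also: cell growth inhibition measured with a cell viability assay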
Description: SANGER: Inhibition of human NCI-H1092 cell growth in a cell viability assay.

JAR = format: functional, cell-based;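 also: growth inhibition of human JAR cells determined with a cell viability assay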
Description: SANGER: Inhibition of human JAR cell growth in a cell viability assay.

LB373-MEL-D = format: functional, cell-based;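 also: growth inhibition of the cell line, read out in a cell viability assay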
Description: SANGER: Inhibition of human LB373-MEL-D cell growth in a cell viability assay.

SHP77 = format: functional, cell-based, SHP-77;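 also: growth inhibition of human SHP-77 cells measured by a cell viability assay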
Description: SANGER: Inhibition of human SHP-77 cell growth in a cell viability assay.

MSTO-211H = format: functional, cell-based
Description: SANGER: Inhibition of human MSTO-211H cell growth in a cell viability assay.

EW-11 = format: functional, cell-based;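 also: growth inhibition of human EW-11 cells, measured with a cell viability assay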
Description: SANGER: Inhibition of human EW-11 cell growth in a cell viability assay.

COLO-800 = format: functional, cell-based;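 also: growth inhibition of COLO-800 cells, read out with a cell viability assay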
Description: SANGER: Inhibition of human COLO-800 cell growth in a cell viability assay.

BB49-HNC = format: functional, cell-based;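 also: cell viability assay read-out, reported as inhibition of BB49-HNC cell growth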
Description: SANGER: Inhibition of human BB49-HNC cell growth in a cell viability assay.

LS-411N = format: functional, cell-based
HuTu80 = format: functional, cell-based, HUTU-80;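 also: growth inhibition of HuTu80 human cells, determined with a cell viability readout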
Description: SANGER: Inhibition of human HUTU-80 cell growth in a cell viability assay.

COR-L88 = format: functional, cell-based;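 also: growth inhibition of COR-L88 cells, read out with a cell viability assay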
Description: SANGER: Inhibition of human COR-L88 cell growth in a cell viability assay.

BT-474 = format: functional, cell-based
Description: SANGER: Inhibition of human BT-474 cell growth in a cell viability assay.

KY821 = format: functional, cell-based;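 also: growth inhibition of human KY821 cells, read out by a cell viability assay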
Description: SANGER: Inhibition of human KY821 cell growth in a cell viability assay.

LS-513 = format: functional, cell-based
Description: SANGER: Inhibition of human LS-513 cell growth in a cell viability assay.

MHH-NB-11 = format: functional, cell-based;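 also: growth inhibition of human MHH-NB-11 cells, read out by a cell viability assay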
Description: SANGER: Inhibition of human MHH-NB-11 cell growth in a cell viability assay.

LXF-289 cell line = format: functional, cell-based
Description: SANGER: Inhibition of human LXF-289 cell growth in a cell viability assay.

OVCAR-4 = format: functional, cell-based;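 also: growth inhibition of human OVCAR-4 cells, measured with a cell viability assay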
Description: SANGER: Inhibition of human OVCAR-4 cell growth in a cell viability assay.

CP66-MEL = format: functional, cell-based;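 also: growth inhibition of CP66-MEL cells determined in a cell viability assay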
Description: SANGER: Inhibition of human CP66-MEL cell growth in a cell viability assay.

LNCaP-Clone-FGC = format: functional, cell-based
Description: SANGER: Inhibition of human LNCaP-Clone-FGC cell growth in a cell viability assay.

BV-173 = format: functional, cell-based
Description: SANGER: Inhibition of human BV-173 cell growth in a cell viability assay.

LB831-BLC = format: functional, cell-based;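 also: growth inhibition of LB831-BLC cells, read out with a cell viability assay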
Description: SANGER: Inhibition of human LB831-BLC cell growth in a cell viability assay.

CW-2 = format: functional, cell-based;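 also: growth inhibition of CW-2 cells, read out by a cell viability assay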
Description: SANGER: Inhibition of human CW-2 cell growth in a cell viability assay.

NB6 = format: functional, cell-based;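 also: growth inhibition of NB6 cells, read out by a cell viability assay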
Description: SANGER: Inhibition of human NB6 cell growth in a cell viability assay.

ALL-PO = format: functional, cell-based;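 also: growth inhibition of ALL-PO cells, read out by a cell viability assay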
Description: SANGER: Inhibition of human ALL-PO cell growth in a cell viability assay.

COLO-668 = format: functional, cell-based
Description: SANGER: Inhibition of human COLO-668 cell growth in a cell viability assay.

Mo = format: functional, cell-based
Description: SANGER: Inhibition of human Mo-T cell growth in a cell viability assay.

COLO-684 = format: functional, cell-based
Description: SANGER: Inhibition of human COLO-684 cell growth in a cell viability assay.

OCUB-M = format: functional, cell-based;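 also: growth inhibition of the cancer cell line, read out through a cell viability assay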
Description: SANGER: Inhibition of human OCUB-M cell growth in a cell viability assay.

TGBC24TKB = format: functional, cell-based;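 also: growth inhibition of human TGBC24TKB cells, read out with a cell viability assay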
Description: SANGER: Inhibition of human TGBC24TKB cell growth in a cell viability assay.

HAL-01 = format: functional, cell-based;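 also: growth inhibition of human HAL-01 cells, read out with a cell viability assay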
Description: SANGER: Inhibition of human HAL-01 cell growth in a cell viability assay.

TE-1 = format: functional, cell-based;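 also: growth inhibition of the human TE-1 cell line, read out with a cell viability assay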
Description: SANGER: Inhibition of human TE-1 cell growth in a cell viability assay.

SW 962 = format: functional, cell-based;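 also: growth inhibition of human SW962 cells, read out by a cell viability assay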
Description: SANGER: Inhibition of human SW962 cell growth in a cell viability assay.

SW684 = format: functional, cell-based;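 also: growth inhibition of human SW684 cells, measured by a cell viability assay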
Description: SANGER: Inhibition of human SW684 cell growth in a cell viability assay.

NCI-H526 = format: functional, cell-based;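 also: growth inhibition of the human NCI-H526 cell line, measured by a cell viability assay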
Description: SANGER: Inhibition of human NCI-H526 cell growth in a cell viability assay.

HL-60 = format: functional, cell-based;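 also: growth inhibition of human HL-60 cells, read out with a cell viability assay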
Description: SANGER: Inhibition of human HL-60 cell growth in a cell viability assay.

With `CCNc1cc(N[C@H]2CC[C@@H](O)CC2)nc(Nc2ccc3c(ccn3Cc3ccccc3)c2)n1` the IC50 (KE-37) was over 5.12 µM, the IC50 (KARPAS-299) was over 5.12 µM and the IC50 (GI-ME-N) was over 5.12 µM. It also gave an IC50 (L-428) of over 5.12 µM, an IC50 (C2BBe1) of over 5.12 µM and an IC50 (NH-12) of over 5.12 µM. The IC50 (MPP-89) was over 5.12 µM, the IC50 (DSH1) was over 5.12 µM and the IC50 (A498) was over 5.12 µM. The IC50 (EKVX) was over 5.12 µM, the IC50 (LB1047-RCC) was over 5.12 µM and the IC50 (NCI-H1355) was over 5.12 µM. For the same molecule, the IC50 (NCI-H510A) was over 5.12 µM, the IC50 (EW-3) was over 5.12 µM and the IC50 (BB30-HNC) was 4.6 µM. The IC50 (RH-1) was over 5.12 µM, the IC50 (SK-UT-1) was over 5.12 µM and the IC50 (D-263MG) was over 5.12 µM. It also gave an IC50 (NKM-1) of over 5.12 µM, an IC50 (EW-18) of over 5.12 µM and an IC50 (D283 Med) of over 5.12 µM. The IC50 (COLO-320-HSR) was over 5.12 µM, the IC50 (NCI-H1650) was over 5.12 µM and the IC50 (Lu-65) was over 5.12 µM. The IC50 (TE-8) was over 5.12 µM, the IC50 (NB10) was over 5.12 µM and the IC50 (LB771-HNC) was over 5.12 µM. It also gave an IC50 (IST-MES1) of over 5.12 µM, an IC50 (LU-134-A) of over 5.12 µM and an IC50 (COLO-829) of over 5.12 µM. The IC50 (NCI-H1092) was over 5.12 µM, the IC50 (JAR) was over 5.12 µM and the IC50 (LB373-MEL-D) was over 5.12 µM. It also gave an IC50 (SHP77) of over 5.12 µM, an IC50 (MSTO-211H) of over 5.12 µM and an IC50 (EW-11) of over 5.12 µM. For the same molecule, the IC50 (COLO-800) was over 5.12 µM, the IC50 (BB49-HNC) was over 5.12 µM and the IC50 (LS-411N) was over 5.12 µM. For the same molecule, the IC50 (HuTu80) was over 5.12 µM, the IC50 (COR-L88) was over 5.12 µM and the IC50 (BT-474) was over 5.12 µM. For the same molecule, the IC50 (KY821) was over 5.12 µM, the IC50 (LS-513) was over 5.12 µM and the IC50 (MHH-NB-11) was over 5.12 µM. The IC50 (LXF-289 cell line) was over 5.12 µM, the IC50 (OVCAR-4) was over 5.12 µM and the IC50 (CP66-MEL) was over 5.12 µM. It also gave an IC50 (LNCaP-Clone-FGC) of over 5.12 µM, an IC50 (BV-173) of over 5.12 µM and an IC50 (LB831-BLC) of over 5.12 µM. The IC50 (CW-2) was over 5.12 µM, the IC50 (NB6) was over 5.12 µM and the IC50 (ALL-PO) was over 5.12 µM. It also gave an IC50 (COLO-668) of over 5.12 µM, an IC50 (Mo) of over 5.12 µM and an IC50 (COLO-684) of over 5.12 µM. The IC50 (OCUB-M) was over 5.12 µM, the IC50 (TGBC24TKB) was over 5.12 µM and the IC50 (HAL-01) was over 5.12 µM. It also gave an IC50 (TE-1) of over 5.12 µM, an IC50 (SW 962) of over 5.12 µM and an IC50 (SW684) of over 5.12 µM. The IC50 (NCI-H526) was over 5.12 µM and the IC50 (HL-60) was over 5.12 µM.
`COc1cc(C)c(Sc2cnc(NC(=O)c3ccc(CNC(C)C(C)(C)C)cc3)s2)cc1C(=O)N1CCN(C(C)=O)CC1` (stereo not given) showed an IC50 (KE-37) of over 10.2 µM, an IC50 (KARPAS-299) of over 10.2 µM and an IC50 (GI-ME-N) of 4.3 µM. The IC50 (L-428) was over 10.2 µM, the IC50 (C2BBe1) was over 10.2 µM and the IC50 (NH-12) was over 10.2 µM. For the same molecule, the IC50 (MPP-89) was over 10.2 µM, the IC50 (DSH1) was over 10.2 µM and the IC50 (A498) was over 10.2 µM. It also gave an IC50 (EKVX) of over 10.2 µM, an IC50 (LB1047-RCC) of over 10.2 µM and an IC50 (NCI-H1355) of 6.22 µM. The IC50 (NCI-H510A) was over 10.2 µM, the IC50 (EW-3) was 8.57 µM and the IC50 (BB30-HNC) was 9.34 µM. The IC50 (RH-1) was over 10.2 µM, the IC50 (SK-UT-1) was over 10.2 µM and the IC50 (D-263MG) was over 10.2 µM. It also gave an IC50 (NKM-1) of 10.1 µM, an IC50 (EW-18) of over 10.2 µM and an IC50 (D283 Med) of over 10.2 µM. For the same molecule, the IC50 (COLO-320-HSR) was over 10.2 µM, the IC50 (NCI-H1650) was over 10.2 µM and the IC50 (Lu-65) was over 10.2 µM. The IC50 (TE-8) was 6.44 µM, the IC50 (NB10) was over 10.2 µM and the IC50 (LB771-HNC) was over 10.2 µM. For the same molecule, the IC50 (IST-MES1) was over 10.2 µM, the IC50 (LU-134-A) was over 10.2 µM and the IC50 (COLO-829) was over 10.2 µM. For the same molecule, the IC50 (NCI-H1092) was over 10.2 µM, the IC50 (JAR) was over 10.2 µM and the IC50 (LB373-MEL-D) was over 10.2 µM. The IC50 (SHP77) was over 10.2 µM, the IC50 (MSTO-211H) was over 10.2 µM and the IC50 (EW-11) was over 10.2 µM. The IC50 (COLO-800) was over 10.2 µM, the IC50 (BB49-HNC) was over 10.2 µM and the IC50 (LS-411N) was 4.34 µM. It also gave an IC50 (HuTu80) of over 10.2 µM, an IC50 (COR-L88) of over 10.2 µM and an IC50 (BT-474) of over 10.2 µM. The IC50 (KY821) was over 10.2 µM, the IC50 (LS-513) was over 10.2 µM and the IC50 (MHH-NB-11) was over 10.2 µM. The IC50 (LXF-289 cell line) was 9.12 µM, the IC50 (OVCAR-4) was 9.62 µM and the IC50 (CP66-MEL) was over 10.2 µM. The IC50 (LNCaP-Clone-FGC) was over 10.2 µM, the IC50 (BV-173) was over 10.2 µM and the IC50 (LB831-BLC) was 6.16 µM. For the same molecule, the IC50 (CW-2) was over 10.2 µM, the IC50 (NB6) was over 10.2 µM and the IC50 (ALL-PO) was over 10.2 µM. The IC50 (COLO-668) was over 10.2 µM, the IC50 (Mo) was over 10.2 µM and the IC50 (COLO-684) was over 10.2 µM. For the same molecule, the IC50 (OCUB-M) was over 10.2 µM, the IC50 (TGBC24TKB) was over 10.2 µM and the IC50 (HAL-01) was over 10.2 µM. The IC50 (TE-1) was over 10.2 µM, the IC50 (SW 962) was 8.13 µM and the IC50 (SW684) was over 10.2 µM. For the same molecule, the IC50 (NCI-H526) was over 10.2 µM and the IC50 (HL-60) was over 10.2 µM.
